Results published in US11759448B2, “Methods for the treatment of inflammation” (University of South Florida, priority 2020, dated 2023).

What was measured:
[1] = test system: TNF-α; assay: tumor necrosis factor alpha (TNF-α) assay; assay type: cell-based; settings: FIG. 1; y-axis TNF-α in picograms per milliliter, lower values mean lower inflammation in the cell
Description: (§1) The fractions isolated may be tested for activity against COX-2 or TNF-α using assays as would be known to those having skill in the art. Representative examples of such assays that could be used include a COX-2 inhibitory fluorometric assay or a TNF-α inhibitory fluorometric assay, each of which are commercially available from numerous suppliers.
(§2) The crude sample provided was dissolved in Ethyl acetate and dried down on Silica gel in a 1:3 ratio. Medium pressure chromatography was performed using a Teledyne-Isco combi-flash Torrent system. A 750 gram silica column was used with a Hexanes to Ethyl acetate gradient, which gave 11 fractions. Fraction A was then subjected to high pressure liquid chromatography on a preparative Silica NP column (250×20 mm), with a gradient between Hexanes to 20% ethyl acetate, which gave 4 fractions. The active fraction was further purified, with a gradient of Hexanes to 100% ethyl acetate on a preparative Silica NP column (250×20 mm), which gave 23 fractions. Fraction 17 was subjected to two rounds of NP hplc using an analytical Silica column (250×10 mm), which gave the final pure compound. An LC-20AD Shimadzu system and an SPD-20A UV detector was used for the hplc separations. All steps were guided using bioassay data from the COX-2 and TNF-α assays. […]

[2] = target: T1, COX-2 (Homo sapiens, UniProt P35354); assay: COX-2 assay; assay type: biochemical; settings: FIG. 2; compared to control diclofenac and dimethyl sulfoxide blank
T1 sequence (P35354 18-604): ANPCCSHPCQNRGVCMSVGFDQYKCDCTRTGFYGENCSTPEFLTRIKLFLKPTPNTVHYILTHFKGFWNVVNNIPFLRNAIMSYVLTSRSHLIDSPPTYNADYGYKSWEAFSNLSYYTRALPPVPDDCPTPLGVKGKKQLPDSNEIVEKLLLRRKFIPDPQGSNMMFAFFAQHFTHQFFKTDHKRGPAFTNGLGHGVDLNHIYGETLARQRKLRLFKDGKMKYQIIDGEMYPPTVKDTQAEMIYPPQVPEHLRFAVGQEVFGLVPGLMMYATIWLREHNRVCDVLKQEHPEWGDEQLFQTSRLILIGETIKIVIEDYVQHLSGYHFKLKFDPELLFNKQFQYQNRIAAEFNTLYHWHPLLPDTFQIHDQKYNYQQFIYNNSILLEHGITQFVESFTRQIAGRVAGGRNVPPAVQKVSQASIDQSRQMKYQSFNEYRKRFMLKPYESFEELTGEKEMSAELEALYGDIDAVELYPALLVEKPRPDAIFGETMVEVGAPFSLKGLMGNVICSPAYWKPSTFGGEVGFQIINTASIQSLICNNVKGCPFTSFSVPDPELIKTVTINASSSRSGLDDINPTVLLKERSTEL
Description: as §1, §2

For `C[C@@]12CCC[C@@H]3c4ccccc4[C@@H](C[C@@H]31)OC2=O` [compound of formula (I)], the “inhibitory activity of TNF-α (levels of TNF-α)” value [1] was “inhibitory activity” and the “inhibitory activity on COX-2 (level of prostaglandins in the sample)” value [2] was “limited to no inhibitory activity”.
